Values after ≈ are worked out from the molar mass of the structure shown.

These results are taken from patent US20250275950A1, “RIFAXIMIN AND N-ACETYL CYSTEINE FORMULATIONS” (Cedars-Sinai Medical Center, priority 2022, published 2025).

The subject of the assay is E. Coli and Klebsiella. The assay is described as follows: In vitro dilution growth/cidal experiments. It counts as cell-based. Here is the method: In vitro dilution growth/cidal experiments were conducted on E. Coli and Klebsiella to determine doses of rifaximin and NAC, including lowest doses of rifaximin and lowest doses of NAC.

Regarding `CC(=O)N[C@@H](CS)C(=O)O` [NAC, N-acetylcysteine], the “effect of NAC on effectiveness of rifaximin in killing E. coli and Klebsiella” value is on record as “improves the effectiveness of rifaximin”.

As to `CO[C@H]1/C=C/O[C@@]2(C)Oc3c(C)c(O)c4c(O)c(c5c(nc6cc(C)ccn65)c4c3C2=O)NC(=O)/C(C)=C\C=C\[C@H](C)[C@H](O)[C@@H](C)[C@@H](O)[C@@H](C)[C@H](OC(C)=O)[C@@H]1C` [rifaximin], the MIC (Escherichia coli, with NAC concentration of 0.125 mg/mL, E. Coli and Klebsiella, organism of the value not specified, read-out: minimal inhibitory concentration (MIC) for rifaximin) was 4 µg/mL (≈ 5.09 µM).
